# Measured values published in ChEMBL document CHEMBL1201862, “PubChem BioAssay data set” (2004).
#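 The compound was tested at five concentrations on cells cultured in 96-well plates, with a 48-hour exposure period. GI50 marks 50% less growth.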 Calls of active or inactive are those of the source. Rule as the data show it: active = GI50 up to about 1.1 µM and inactive = higher.
# Columns and labels:
# Test in all cases: DTP human tumour cell line panel, 48 h
# SN12C = test system: SN12C
# MDA-N = test system: MDA-N
# CAKI-1 = test system: CAKI-1
# Hs-578T = test system: Hs-578T
# NCI/ADR-RES = test system: NCI/ADR-RES
# SK-MEL-2 = test system: SK-MEL-2
# SF-268 = test system: SF-268
# SF-539 = test system: SF-539
# TK-10 = test system: TK-10
# HCC 2998 = test system: HCC 2998
# M14 = test system: M14
# MOLT-4 = test system: MOLT-4
# HCT-116 = test system: HCT-116
# SK-OV-3 = test system: SK-OV-3
# DU-145 = test system: DU-145
# ACHN = test system: ACHN
# U-251 = test system: U-251
# SF-295 = test system: SF-295
# 786-0 = test system: 786-0
# UO-31 = test system: UO-31
# NCI-H23 = test system: NCI-H23
# NCI-H460 = test system: NCI-H460
# MCF7 = test system: MCF7
# A498 = test system: A498
# SNB-75 = test system: SNB-75
# OVCAR-5 = test system: OVCAR-5
# RXF 393 = test system: RXF 393
# KM12 = test system: KM12
# OVCAR-3 = test system: OVCAR-3
# CCRF-CEM = test system: CCRF-CEM
# LOX IMVI = test system: LOX IMVI
# A549 = test system: A549
# IGROV-1 = test system: IGROV-1
# SNB-19 = test system: SNB-19
# COLO 205 = test system: COLO 205
# MDA-MB-231 = test system: MDA-MB-231
# HCT-15 = test system: HCT-15
# UACC-257 = test system: UACC-257
# PC-3 = test system: PC-3
# T47D = test system: T47D
# NCI-H522 = test system: NCI-H522
# HL-60 = test system: HL-60
# SK-MEL-28 = test system: SK-MEL-28
# HT-29 = test system: HT-29
# OVCAR-4 = test system: OVCAR-4
# SW-620 = test system: SW-620
# SR = test system: SR
# MDA-MB-435 = test system: MDA-MB-435
# HOP-62 = test system: HOP-62
# HOP-92 = test system: HOP-92
# OVCAR-8 = test system: OVCAR-8
# RPMI-8226 = test system: RPMI-8226
# K562 = test system: K562
# SK-MEL-5 = test system: SK-MEL-5
# EKVX = test system: EKVX
# Malme-3M = test system: Malme-3M
# UACC-62 = test system: UACC-62
# NCI-H226 = test system: NCI-H226
smiles,measurement,setting,value
CC(=O)OCC1OC(N2C(c3ccccc3)=CC(c3cccs3)C(C#N)=C2S)C(OC(C)=O)C(OC(C)=O)C1OC(C)=O (stereo not drawn),GI50,SN12C,> 100 µM (inactive)
same,GI50,MDA-N,> 100 µM (inactive)
same,GI50,CAKI-1,> 100 µM (inactive)
same,GI50,Hs-578T,2.47 µM (inactive)
same,GI50,NCI/ADR-RES,> 100 µM (inactive)
same,GI50,SK-MEL-2,> 100 µM (inactive)
same,GI50,SF-268,4.49 µM (inactive)
same,GI50,SF-539,2.34 µM (inactive)
same,GI50,TK-10,> 100 µM (inactive)
same,GI50,HCC 2998,> 100 µM (inactive)
same,GI50,M14,1.84 µM (inactive)
same,GI50,MOLT-4,> 100 µM (inactive)
same,GI50,HCT-116,2.25 µM (inactive)
same,GI50,SK-OV-3,> 100 µM (inactive)
same,GI50,DU-145,> 100 µM (inactive)
same,GI50,ACHN,> 100 µM (inactive)
same,GI50,U-251,10.3 µM (inactive)
same,GI50,SF-295,> 100 µM (inactive)
same,GI50,786-0,2.55 µM (inactive)
same,GI50,UO-31,> 100 µM (inactive)
same,GI50,NCI-H23,5.18 µM (inactive)
same,GI50,NCI-H460,> 100 µM (inactive)
same,GI50,MCF7,> 100 µM (inactive)
same,GI50,A498,10.5 µM (inactive)
same,GI50,SNB-75,4.43 µM (inactive)
same,GI50,OVCAR-5,4.92 µM (inactive)
same,GI50,RXF 393,3.43 µM (inactive)
same,GI50,KM12,> 100 µM (inactive)
same,GI50,OVCAR-3,> 100 µM (inactive)
same,GI50,CCRF-CEM,> 100 µM (inactive)
same,GI50,LOX IMVI,> 100 µM (inactive)
same,GI50,A549,> 100 µM (inactive)
same,GI50,IGROV-1,> 100 µM (inactive)
same,GI50,SNB-19,47.3 µM (inactive)
same,GI50,COLO 205,> 100 µM (inactive)
same,GI50,MDA-MB-231,6.03 µM (inactive)
same,GI50,HCT-15,> 100 µM
same,GI50,UACC-257,> 100 µM (inactive)
same,GI50,PC-3,> 100 µM (inactive)
same,GI50,T47D,> 100 µM (inactive)
COc1ccc(C2=C(Cl)C(=O)O/C2=C\c2ccc(OC)c(Br)c2)cc1Cl,GI50,MDA-N,> 100 µM (inactive)
same,GI50,CAKI-1,36.1 µM (inactive)
same,GI50,Hs-578T,27.4 µM (inactive)
same,GI50,NCI/ADR-RES,37.8 µM (inactive)
same,GI50,SK-MEL-2,25.2 µM (inactive)
same,GI50,SF-268,16.5 µM (inactive)
same,GI50,SF-539,16.1 µM (inactive)
same,GI50,NCI-H522,25.6 µM (inactive)
same,GI50,TK-10,21.5 µM (inactive)
same,GI50,HL-60,> 100 µM (inactive)
same,GI50,HCC 2998,57.9 µM (inactive)
same,GI50,M14,70.8 µM (inactive)
same,GI50,MOLT-4,41.5 µM (inactive)
same,GI50,SK-MEL-28,> 100 µM (inactive)
same,GI50,HT-29,> 100 µM (inactive)
same,GI50,HCT-116,23.5 µM (inactive)
same,GI50,SK-OV-3,37.1 µM (inactive)
same,GI50,DU-145,74.6 µM (inactive)
same,GI50,ACHN,16.3 µM (inactive)
same,GI50,OVCAR-4,> 100 µM (inactive)
same,GI50,U-251,14.1 µM (inactive)
same,GI50,SF-295,15.7 µM (inactive)
same,GI50,786-0,17.2 µM (inactive)
same,GI50,SW-620,> 100 µM (inactive)
same,GI50,UO-31,53.1 µM (inactive)
same,GI50,NCI-H23,16.3 µM (inactive)
same,GI50,NCI-H460,27.7 µM (inactive)
same,GI50,SR,51.8 µM (inactive)
same,GI50,MCF7,14.6 µM (inactive)
same,GI50,MDA-MB-435,> 100 µM (inactive)
same,GI50,A498,17.3 µM (inactive)
same,GI50,SNB-75,> 100 µM (inactive)
same,GI50,OVCAR-5,43.5 µM (inactive)
same,GI50,HOP-62,14.6 µM (inactive)
same,GI50,RXF 393,18.3 µM (inactive)
same,GI50,KM12,> 100 µM (inactive)
same,GI50,OVCAR-3,23 µM (inactive)
same,GI50,CCRF-CEM,28.1 µM (inactive)
same,GI50,LOX IMVI,58.9 µM (inactive)
same,GI50,A549,33.3 µM (inactive)
same,GI50,IGROV-1,33.7 µM (inactive)
same,GI50,HOP-92,24 µM (inactive)
same,GI50,SNB-19,31.8 µM (inactive)
same,GI50,OVCAR-8,22.7 µM (inactive)
same,GI50,RPMI-8226,> 100 µM (inactive)
same,GI50,K562,35.2 µM (inactive)
same,GI50,COLO 205,> 100 µM (inactive)
same,GI50,SK-MEL-5,> 100 µM (inactive)
same,GI50,EKVX,31.6 µM (inactive)
same,GI50,Malme-3M,54 µM (inactive)
same,GI50,HCT-15,55.2 µM
same,GI50,UACC-62,22.8 µM (inactive)
same,GI50,UACC-257,> 100 µM (inactive)
same,GI50,PC-3,39.1 µM (inactive)
same,GI50,T47D,58.9 µM (inactive)
COP(=O)(OC)C(Cc1cn(C(C)=O)c2ccccc12)C(=O)O (stereo not drawn),GI50,SN12C,> 100 µM (inactive)
same,GI50,MDA-N,> 100 µM (inactive)
same,GI50,CAKI-1,> 100 µM (inactive)
same,GI50,Hs-578T,> 100 µM (inactive)
same,GI50,NCI/ADR-RES,> 100 µM (inactive)
same,GI50,SK-MEL-2,> 100 µM (inactive)
same,GI50,NCI-H522,> 100 µM (inactive)
same,GI50,TK-10,> 100 µM (inactive)
same,GI50,HL-60,> 100 µM (inactive)
same,GI50,HCC 2998,> 100 µM (inactive)
same,GI50,M14,> 100 µM (inactive)
same,GI50,MOLT-4,> 100 µM (inactive)
same,GI50,SK-MEL-28,> 100 µM (inactive)
same,GI50,HT-29,> 100 µM (inactive)
same,GI50,HCT-116,> 100 µM (inactive)
same,GI50,SK-OV-3,> 100 µM (inactive)
same,GI50,DU-145,> 100 µM (inactive)
same,GI50,ACHN,> 100 µM (inactive)
same,GI50,OVCAR-4,> 100 µM (inactive)
same,GI50,U-251,> 100 µM (inactive)
same,GI50,SF-295,> 100 µM (inactive)
same,GI50,SW-620,> 100 µM (inactive)
same,GI50,UO-31,> 100 µM (inactive)
same,GI50,NCI-H23,> 100 µM (inactive)
same,GI50,NCI-H460,> 100 µM (inactive)
same,GI50,SR,> 100 µM (inactive)
same,GI50,MCF7,8.26 µM (inactive)
same,GI50,A498,> 100 µM (inactive)
same,GI50,SNB-75,> 100 µM (inactive)
same,GI50,OVCAR-5,> 100 µM (inactive)
same,GI50,NCI-H226,> 100 µM (inactive)
same,GI50,HOP-62,> 100 µM (inactive)
same,GI50,OVCAR-3,> 100 µM (inactive)
same,GI50,CCRF-CEM,> 100 µM (inactive)
same,GI50,LOX IMVI,> 100 µM (inactive)
same,GI50,A549,> 100 µM (inactive)
same,GI50,IGROV-1,> 100 µM (inactive)
same,GI50,HOP-92,65.5 µM (inactive)
same,GI50,SNB-19,> 100 µM (inactive)
same,GI50,OVCAR-8,> 100 µM (inactive)
same,GI50,RPMI-8226,> 100 µM (inactive)
same,GI50,K562,> 100 µM (inactive)
same,GI50,COLO 205,> 100 µM (inactive)
same,GI50,SK-MEL-5,> 100 µM (inactive)
same,GI50,MDA-MB-231,> 100 µM (inactive)
same,GI50,HCT-15,> 100 µM
same,GI50,UACC-257,> 100 µM (inactive)
same,GI50,PC-3,> 100 µM (inactive)
same,GI50,T47D,> 100 µM (inactive)
CCP(=O)(CC)C(Cl)Cl,GI50,SN12C,> 100 µM (inactive)
same,GI50,MDA-N,> 100 µM (inactive)
same,GI50,CAKI-1,> 100 µM (inactive)
same,GI50,Hs-578T,> 100 µM (inactive)
same,GI50,NCI/ADR-RES,> 100 µM (inactive)
same,GI50,SK-MEL-2,> 100 µM (inactive)
same,GI50,NCI-H522,> 100 µM (inactive)
same,GI50,TK-10,> 100 µM (inactive)
same,GI50,HL-60,> 100 µM (inactive)
same,GI50,HCC 2998,> 100 µM (inactive)
same,GI50,M14,> 100 µM (inactive)
same,GI50,MOLT-4,> 100 µM (inactive)
same,GI50,SK-MEL-28,> 100 µM (inactive)
same,GI50,HT-29,> 100 µM (inactive)
same,GI50,HCT-116,> 100 µM (inactive)
same,GI50,SK-OV-3,> 100 µM (inactive)
same,GI50,DU-145,> 100 µM (inactive)
same,GI50,ACHN,> 100 µM (inactive)
same,GI50,OVCAR-4,> 100 µM (inactive)
same,GI50,U-251,> 100 µM (inactive)
same,GI50,SF-295,> 100 µM (inactive)
same,GI50,SW-620,> 100 µM (inactive)
same,GI50,UO-31,> 100 µM (inactive)
same,GI50,NCI-H23,> 100 µM (inactive)
same,GI50,NCI-H460,> 100 µM (inactive)
same,GI50,SR,> 100 µM (inactive)
same,GI50,MCF7,> 100 µM (inactive)
same,GI50,MDA-MB-435,> 100 µM (inactive)
same,GI50,SNB-75,> 100 µM (inactive)
same,GI50,OVCAR-5,> 100 µM (inactive)
same,GI50,NCI-H226,> 100 µM (inactive)
same,GI50,HOP-62,> 100 µM (inactive)
same,GI50,OVCAR-3,> 100 µM (inactive)
same,GI50,CCRF-CEM,> 100 µM (inactive)
same,GI50,LOX IMVI,> 100 µM (inactive)
same,GI50,A549,> 100 µM (inactive)
same,GI50,IGROV-1,> 100 µM (inactive)
same,GI50,HOP-92,> 100 µM (inactive)
same,GI50,SNB-19,> 100 µM (inactive)
same,GI50,OVCAR-8,> 100 µM (inactive)
same,GI50,RPMI-8226,> 100 µM (inactive)
same,GI50,K562,> 100 µM (inactive)
same,GI50,COLO 205,> 100 µM (inactive)
same,GI50,SK-MEL-5,> 100 µM (inactive)
same,GI50,MDA-MB-231,> 100 µM (inactive)
same,GI50,HCT-15,> 100 µM
same,GI50,UACC-257,> 100 µM (inactive)
same,GI50,PC-3,> 100 µM (inactive)
same,GI50,T47D,> 100 µM (inactive)
